Results on eight molecules are retold here after PubChem BioAssay (NCI).

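Following 48 hours of exposure in 96-well plates, responses at five concentrations were used to interpolate endpoints linearly. GI50 = concentration required for 50% inhibition of growth. TGI: concentration producing complete growth inhibition.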

Some test systems named below: A549 NSCLC; NCI-H226 lung; OVCAR-3 ovarian; HS 578T breast; SK-MEL-28 melanoma; SF-268 CNS; MDA-MB-231 breast; MDA-MB-435; COLO 205 colon; EKVX NSCLC.
Assay in all cases: NCI anticancer screen, dose series, 48 h

As for `NCCSC(c1ccccc1)(c1ccccc1)c1ccccc1`, the GI50 in the experiment on A549 NSCLC is 0.742 µM; with NCI-H226 lung, 4.79 µM; in the experiment on OVCAR-3 ovarian, 1.52 µM; in the experiment with HS 578T breast it was 1.09 µM; in the experiment with SK-MEL-28 melanoma, 1.64 µM; in the experiment with SF-268 CNS it was 0.966 µM. Besides, the GI50 in the experiment with MDA-MB-231 breast was 0.607 µM; with MDA-MB-435, 0.242 µM; in the experiment with COLO 205 colon it was 0.435 µM. The TGI was 6.03 µM in the experiment on A549 NSCLC; 22.7 µM in the experiment on NCI-H226 lung; 6.13 µM in the experiment with OVCAR-3 ovarian; 5.29 µM with HS 578T breast; 3.34 µM in the experiment with SK-MEL-28 melanoma; 11.2 µM in the experiment on SF-268 CNS. Besides, the TGI in the experiment on MDA-MB-231 breast was found to be 2.33 µM; in the experiment on MDA-MB-435, 0.55 µM; in the experiment with COLO 205 colon, 1.69 µM.
As to `COc1cc2nc3cc([N+](=O)[O-])ccc3c(NCCNCC(C)O)c2cc1OC` (stereo unspecified), the GI50 in the experiment on A549 NSCLC was 1.43 µM; in the experiment on EKVX NSCLC it was 1.62 µM; in the experiment on NCI-H226 lung, 1.05 µM; with OVCAR-3 ovarian, 0.482 µM; in the experiment on HS 578T breast it was 1.45 µM; with SF-268 CNS, 0.469 µM. Also, the GI50 in the experiment on MDA-MB-231 breast is 0.604 µM; in the experiment on MDA-MB-435, 0.572 µM; with COLO 205 colon, 0.368 µM. For the same molecule, the TGI with A549 NSCLC turned out to be 5.13 µM; with EKVX NSCLC, 5.34 µM; in the experiment on NCI-H226 lung it was 3.18 µM; in the experiment on OVCAR-3 ovarian, 1.74 µM; in the experiment on HS 578T breast it was 5.51 µM; in the experiment on SF-268 CNS it was 2.46 µM. In addition, the TGI with MDA-MB-231 breast amounted to 3.08 µM; with MDA-MB-435 it was 1.98 µM; in the experiment with COLO 205 colon it was 1.57 µM.
`O=c1cccc2n1CC1CNC[C@H]2C1`: the TGI with A549 NSCLC, with EKVX NSCLC, in the experiment with OVCAR-3 ovarian, in the experiment on HS 578T breast, in the experiment with SK-MEL-28 melanoma and in the experiment with SF-268 CNS was above 100 µM throughout. Further, the TGI in the experiment with MDA-MB-231 breast, in the experiment with MDA-MB-435 and in the experiment on COLO 205 colon was above 100 µM each time.
In the case of `NC(N)=N/N=C/c1c(-c2cccnc2)nc2sc(Cl)cn12`, the GI50 with A549 NSCLC was 18.7 µM; with EKVX NSCLC, 16.7 µM; in the experiment with NCI-H226 lung it was 13.4 µM; with OVCAR-3 ovarian it was 15.3 µM; in the experiment with HS 578T breast, 22.3 µM; in the experiment on SF-268 CNS, 20.7 µM. In addition, the GI50 is 7.95 µM in the experiment with MDA-MB-231 breast and 16.6 µM in the experiment on MDA-MB-435. Further, the TGI in the experiment on A549 NSCLC was 40.1 µM; in the experiment on EKVX NSCLC, 32.9 µM; with NCI-H226 lung it was 28 µM; in the experiment with OVCAR-3 ovarian, 30.1 µM; in the experiment on HS 578T breast, 46.6 µM; in the experiment on SF-268 CNS it was 52.7 µM. Besides, the TGI in the experiment with MDA-MB-231 breast is 21.9 µM; with MDA-MB-435 it was 30.5 µM.
`Cn1c(=O)c(Oc2ccc(F)cc2F)cc2cnc(NC3CCOCC3)nc21`: the GI50 with A549 NSCLC was above 25 µM; in the experiment on NCI-H226 lung, above 25 µM; in the experiment with OVCAR-3 ovarian, above 25 µM; in the experiment on HS 578T breast it was above 14.3 µM; in the experiment on SK-MEL-28 melanoma, above 25 µM; in the experiment with SF-268 CNS, above 25 µM. For the same molecule, the GI50 in the experiment on MDA-MB-231 breast, in the experiment on MDA-MB-435 and in the experiment on COLO 205 colon was above 25 µM each time. The TGI in the experiment on A549 NSCLC, in the experiment on NCI-H226 lung, with OVCAR-3 ovarian, in the experiment with HS 578T breast, with SK-MEL-28 melanoma and in the experiment with SF-268 CNS was above 25 µM in each case. The TGI with MDA-MB-231 breast, with MDA-MB-435 and in the experiment on COLO 205 colon was above 25 µM throughout.
As to `O=[N+]([O-])c1ccc2c(c1)C(c1ccccc1Cl)=Nc1c(n[nH]c1-c1cccnc1)N2`, the GI50 is above 25 µM with A549 NSCLC; above 25 µM in the experiment with NCI-H226 lung; above 25 µM in the experiment on OVCAR-3 ovarian; above 19.9 µM in the experiment on HS 578T breast; above 25 µM in the experiment with SK-MEL-28 melanoma; above 25 µM in the experiment with SF-268 CNS. Also, the GI50 in the experiment on MDA-MB-231 breast, in the experiment with MDA-MB-435 and with COLO 205 colon was above 25 µM each time. The TGI in the experiment on A549 NSCLC, with NCI-H226 lung, with OVCAR-3 ovarian, in the experiment with HS 578T breast, with SK-MEL-28 melanoma and in the experiment with SF-268 CNS was above 25 µM throughout. For the same molecule, the TGI in the experiment on MDA-MB-231 breast, with MDA-MB-435 and in the experiment on COLO 205 colon was above 25 µM throughout.
For the molecule `COc1ccc(-c2[nH]nc(N)c2-c2cc(OC)c(OC)c(OC)c2)cc1`, the GI50 is 0.0447 µM in the experiment with A549 NSCLC; 0.512 µM in the experiment with NCI-H226 lung; 0.0261 µM in the experiment on OVCAR-3 ovarian; 0.0352 µM with HS 578T breast; 0.0756 µM with SF-268 CNS; 0.074 µM in the experiment with MDA-MB-231 breast. Also, the GI50 in the experiment on MDA-MB-435 was 0.0106 µM; with COLO 205 colon, 0.0331 µM. For the same molecule, the TGI with A549 NSCLC is above 100 µM; in the experiment with NCI-H226 lung, above 100 µM; with OVCAR-3 ovarian, 0.853 µM; in the experiment with HS 578T breast, above 59 µM; in the experiment on SF-268 CNS it was 33.3 µM; in the experiment with MDA-MB-231 breast, above 100 µM. In addition, the TGI in the experiment on MDA-MB-435 amounted to 0.0446 µM; with COLO 205 colon, 0.16 µM.
In the case of `COc1cc(C2CC(=O)Nc3c2c(C)nn3-c2nc3ccccc3[nH]2)cc(OC)c1O` (stereo unspecified), the GI50 in the experiment on A549 NSCLC is 3.45 µM; in the experiment with NCI-H226 lung, 2.46 µM; in the experiment on OVCAR-3 ovarian, 2.95 µM; with HS 578T breast it was 2.05 µM; with SK-MEL-28 melanoma, 2.4 µM; in the experiment on SF-268 CNS it was 3.83 µM. Further, the results for the GI50 in the experiment on MDA-MB-231 breast, in the experiment with MDA-MB-435 and in the experiment on COLO 205 colon were 2.98 µM, 1.98 µM and 17.2 µM, respectively. The TGI in the experiment with A549 NSCLC is above 40.2 µM; in the experiment with NCI-H226 lung, 7.16 µM; in the experiment with OVCAR-3 ovarian it was 7.78 µM; with HS 578T breast, 7.7 µM; with SK-MEL-28 melanoma, 6.58 µM; in the experiment on SF-268 CNS it was 45 µM. The results for the TGI with MDA-MB-231 breast, in the experiment on MDA-MB-435 and in the experiment on COLO 205 colon were 8.15 µM, 4.42 µM and 46 µM, respectively.
